Read-outs that look alike come from different tables or passages of the source. Marks after values point to notes of the source that are not given here. A value given as a limit tells only on which side of the number the result lay.

This data set is described as follows: Hydrocarbon solubility in ionic liquid (volume change of hydrocarbon phase in graduated flask). Here is the method:
The testing apparatus consisted of a flat-bottomed florence flask with a graduated neck. The flask was charged with 75 mL of bmim^+BF4^−, the level being recorded. A known quantity of C5 hydrocarbon was then added to the flask and the flask was sealed. The overall liquid level and the location of the liquid-liquid interfacial meniscus were recorded. The mixture was then agitated to contact the two liquids and the two phases were allowed to separate. The locations of all meniscuses were then recorded. Agitation and phase separation was then repeated until the liquid levels remained unchanged. The volume change of the hydrocarbon phase corresponds to the quantity of hydrocarbon dissolved in the ionic liquid. The testing was conducted at ambient temperature.
The procedure described in Example 1 was performed instead with ethylcyclohexane, ethylbenzene, and styrene. The ionic liquid used was 1-butyl-3-methylimidazolium tetrafluoroborate.

Setting [1] is: in bmim+ BF4- ionic liquid containing 1.69 M AgBF4.
Setting [2] is: in bmim+ BF4- ionic liquid containing 1.69 M AgBF4, ambient temperature.

With `CCc1ccccc1` [Ethylbenzene], under setting [1], the “Solubility (mol C8/L ionic liquid)” value is on record as 7.55 mol C8/L ionic liquid and the “Solubility (mol C8/mol Ag+)” value was determined as 4.47 mol C8/mol Ag+.
As for `CCC1CCCCC1` [Ethylcyclohexane], the “Solubility (mol C8/L ionic liquid)” value was found to be 0.10 mol C8/L ionic liquid and the “Solubility (mol C8/mol Ag+)” value was 0.06 mol C8/mol Ag+.
For the compound `CCC(C)C` [Isopentane], the “Solubility (mol C5/L ionic liquid)” value was determined as 0.044 mol C5/L ionic liquid and the “Solubility (mol C5/mol Ag+)” value is 0.026 mol C5/mol Ag+.
Take `C=CC(=C)C` [Isoprene]: under setting [2], the “Solubility (mol C5/L ionic liquid)” value is recorded as 1.132 mol C5/L ionic liquid and the “Solubility (mol C5/mol Ag+)” value is recorded as 0.670 mol C5/mol Ag+.
For `C=Cc1ccccc1` [Styrene], under setting [1], the “Solubility (mol C8/L ionic liquid)” value is > 7.01* mol C8/L ionic liquid and the “Solubility (mol C8/mol Ag+)” value is 4.15* mol C8/mol Ag+.

(Values after US20040044264A1, “Use of ionic liquids to separate olefins, diolefins and aromatics” (NOVA Chemicals (International) S.A., priority 2002, published 2004).)
